Values after ≈ are worked out from the molar mass of the structure shown. Active and inactive are the calls of the source. The rule behind the calls is not given here.
Tests used:
Candida parapsilosis = assay: Antifungal activity against Candida parapsilosis GIM 2.190 assessed as inhibition of fungal growth by CLSI M27-A3 guidelines based method; format: functional; details: Lodderomyces parapsilosis
Candida albicans [1] = assay: Antifungal activity against fluconazole-resistant Candida albicans clinical isolate 311 assessed as inhibition of fungal growth by CLSI M27-A3 guidelines based method; format: functional
Candida albicans [2] = assay: Antibiofilm activity against fluconazole-resistant Candida albicans CPCC400616 assessed as inhibition of metabolic activity of biofilm measured after 6 hrs by XTT reduction assay; format: functional
Candida albicans [3] = assay: Fungicidal activity fluconazole and iodiconazole resistant Candida albicans clinical isolate 17# assessed as decrease in number of fungi at 16 microg/ml measured within 24 hrs by time-kill kinetics assay; format: functional, organism-based; details: dose 16.0 µg/ml
Candida tropicalis = assay: Antifungal activity against Candida tropicalis GIM 2.183 assessed as inhibition of fungal growth by CLSI M27-A3 guidelines based method; format: functional
Candida albicans [4] = assay: Antifungal activity against fluconazole-resistant Candida albicans clinical isolate 904 assessed as inhibition of fungal growth by CLSI M27-A3 guidelines based method; format: functional
Cryptococcus neoformans = assay: Antifungal activity against Cryptococcus neoformans CGMCC 2.3161 assessed as inhibition of fungal growth by CLSI M27-A3 guidelines based method; format: functional
Candida albicans [5] = assay: Antifungal activity against fluconazole-resistant Candida albicans clinical isolate 100 assessed as inhibition of fungal growth by CLSI M27-A3 guidelines based method; format: functional
Candida albicans [6] = assay: Effect on sterol composition in Candida albicans SC5314 assessed as eburicol content at 4 microg/ml measured after 16 hrs by GC-MS analysis relative to control; format: functional; details: dose 4 µg/ml
Nakaseomyces glabratus = assay: Antifungal activity against Candida glabrata assessed as inhibition of fungal growth by CLSI M27-A3 guidelines based method; format: functional
Candida albicans [7] = assay: Inhibition of hyphal formation in fluconazole-resistant Candida albicans CPCC400616 assessed as reduction in invasive ability at 2 microg/ml measured after 4 hrs by inverted microscopic analysis; format: functional, organism-based; details: dose 2.0 µg/ml
Candida albicans [8] = assay: Fungicidal activity against fluconazole and iodiconazole resistant Candida albicans clinical isolate 17# incubated for 48 hrs by PDA plate based method; format: functional
Candida albicans [9] = assay: Antifungal activity against Candida albicans SC5314 assessed as inhibition of fungal growth by CLSI M27-A3 guidelines based method; format: functional
Candida albicans [10] = assay: Antifungal activity against fluconazole and iodiconazole resistant Candida albicans clinical isolate 17# assessed as inhibition of fungal growth by CLSI M27-A3 guidelines based method; format: functional
Aspergillus fumigatus = assay: Antifungal activity against Aspergillus fumigatus cgmcc 3.7795 assessed as inhibition of fungal growth by CLSI M27-A3 guidelines based method; format: functional
Candida albicans [11] = assay: Effect on sterol composition in Candida albicans SC5314 assessed as other sterols content at 4 microg/ml measured after 16 hrs by GC-MS analysis (reference value: 1.06 %); format: functional; details: dose 4 µg/ml
Candida albicans [12] = assay: Antifungal activity against fluconazole-resistant Candida albicans clinical isolate 103 assessed as inhibition of fungal growth by CLSI M27-A3 guidelines based method; format: functional
Candida albicans [13] = assay: Antibiofilm activity against fluconazole-resistant Candida albicans CPCC400616 assessed as inhibition of metabolic activity of biofilm measured after 24 hrs by XTT reduction assay; format: functional
Candida albicans [14] = assay: Antifungal activity against Candida albicans GIM 2.194 assessed as inhibition of fungal growth by CLSI M27-A3 guidelines based method; format: functional
Candida albicans [15] = assay: Antifungal activity against fluconazole-resistant Candida albicans clinical isolate 901 assessed as inhibition of fungal growth by CLSI M27-A3 guidelines based method; format: functional
Candida albicans [16] = assay: Effect on sterol composition in Candida albicans SC5314 assessed as 14alpha-demethyllanosterol content at 4 microg/ml measured after 16 hrs by GC-MS analysis (reference value: 1.98 %); format: functional; details: dose 4 µg/ml
[17] = Cytotoxicity against HUVEC cells assessed as inhibition of cell growth incubated for 72 hrs by MTT assay; format: toxicity, cell-based; details: human
[18] = Cytotoxicity against human OVCAR-3 cells assessed as inhibition of cell growth incubated for 72 hrs by MTT assay; format: toxicity, cell-based
Pichia kudriavzevii = assay: Antifungal activity against Candida krusei GIM 2.1 assessed as inhibition of fungal growth by CLSI M27-A3 guidelines based method; format: functional
Candida albicans [19] = assay: Effect on sterol composition in Candida albicans SC5314 assessed as obtusifoliol content at 4 microg/ml measured after 16 hrs by GC-MS analysis relative to control; format: functional; details: dose 4 µg/ml
[20] = Cytotoxicity against HEK293T cells assessed as inhibition of cell growth incubated for 72 hrs by MTT assay; format: toxicity, cell-based, HEK-293T; details: human
Candida albicans [21] = assay: Fungicidal activity against Candida albicans SC5314 incubated for 48 hrs by PDA plate based method; format: functional
Candida albicans [22] = assay: Antifungal activity against fluconazole-resistant Candida albicans CaR assessed as inhibition of fungal growth by CLSI M27-A3 guidelines based method; format: functional
Candida albicans [23] = assay: Effect on sterol composition in Candida albicans SC5314 assessed as lanosterol content at 4 microg/ml measured after 16 hrs by GC-MS analysis relative to control; format: functional; details: dose 4 µg/ml
Candida albicans [24] = assay: Effect on sterol composition in Candida albicans SC5314 assessed as ergosterol content at 4 microg/ml measured after 16 hrs by GC-MS analysis (reference value: 96.96 %); format: functional; details: dose 4 µg/ml
[25] = Cytotoxicity against human NCI-H460 cells assessed as inhibition of cell growth incubated for 72 hrs by MTT assay; format: toxicity, cell-based
Candida albicans [26] = assay: Antifungal activity against fluconazole-resistant Candida albicans clinical isolate 632 assessed as inhibition of fungal growth by CLSI M27-A3 guidelines based method; format: functional

With `OC(Cn1cncn1)(Cn1cncn1)c1ccc(F)cc1F` [FLUCONAZOLE] the MIC80 (Candida parapsilosis) was 1 µg/mL (≈ 3.27 µM), the MIC80 (Candida albicans [1]) was > 64 µg/mL and the MIC50 (Candida albicans [2]) was 16 µg/mL (≈ 52.2 µM). The Activity (Candida albicans [3]) was “inactive”, the MIC80 (Candida tropicalis) was 0.25 µg/mL (≈ 0.816 µM) and the MIC80 (Candida albicans [4]) was > 64 µg/mL. The MIC80 (Cryptococcus neoformans) was 4 µg/mL (≈ 13.1 µM), the MIC80 (Candida albicans [5]) was > 64 µg/mL and the Activity (Candida albicans [6]) was 60.09%. The MIC80 (Nakaseomyces glabratus) was 8 µg/mL (≈ 26.1 µM), the inhibition (Candida albicans [7]) was “inactive” and the MFC (Candida albicans [8]) was > 64 µg/mL. For the same molecule, the MIC80 (Candida albicans [9]) was 0.25 µg/mL (≈ 0.816 µM), the MIC80 (Candida albicans [10]) was > 64 µg/mL and the MIC80 (Aspergillus fumigatus) was 64 µg/mL (≈ 209 µM). For the same molecule, the Activity (Candida albicans [11]) was 8.64%, the MIC80 (Candida albicans [12]) was > 64 µg/mL and the MIC50 (Candida albicans [13]) was > 32 µg/mL. For the same molecule, the MIC80 (Candida albicans [14]) was 0.5 µg/mL (≈ 1.63 µM), the MIC80 (Candida albicans [15]) was > 64 µg/mL and the Activity (Candida albicans [16]) was 3.03%. The IC50 at 72 h [17] was > 40 µM, the IC50 at 72 h [18] was > 40 µM and the MIC80 (Pichia kudriavzevii) was 8 µg/mL (≈ 26.1 µM). For the same molecule, the Activity (Candida albicans [19]) was 14.37%, the IC50 at 72 h [20] was > 40 µM and the MFC (Candida albicans [21]) was > 64 µg/mL. For the same molecule, the MIC80 (Candida albicans [22]) was > 64 µg/mL, the Activity (Candida albicans [23]) was 9.3% and the Activity (Candida albicans [24]) was 4.57%. The IC50 at 72 h [25] was > 40 µM and the MIC80 (Candida albicans [26]) was > 64 µg/mL.
